Activity calls are given as the source filed them.
Columns and labels:
Insulin-degrading enzyme [1] = target: T1, Insulin-degrading enzyme (Homo sapiens, UniProt P14735); assay: recombinant IDE activation, cell-free – biochemical, fluorescence polarization, counter-screen for IDE activator project, dose response (AID 588681)
T1 sequence (P14735 whole entry): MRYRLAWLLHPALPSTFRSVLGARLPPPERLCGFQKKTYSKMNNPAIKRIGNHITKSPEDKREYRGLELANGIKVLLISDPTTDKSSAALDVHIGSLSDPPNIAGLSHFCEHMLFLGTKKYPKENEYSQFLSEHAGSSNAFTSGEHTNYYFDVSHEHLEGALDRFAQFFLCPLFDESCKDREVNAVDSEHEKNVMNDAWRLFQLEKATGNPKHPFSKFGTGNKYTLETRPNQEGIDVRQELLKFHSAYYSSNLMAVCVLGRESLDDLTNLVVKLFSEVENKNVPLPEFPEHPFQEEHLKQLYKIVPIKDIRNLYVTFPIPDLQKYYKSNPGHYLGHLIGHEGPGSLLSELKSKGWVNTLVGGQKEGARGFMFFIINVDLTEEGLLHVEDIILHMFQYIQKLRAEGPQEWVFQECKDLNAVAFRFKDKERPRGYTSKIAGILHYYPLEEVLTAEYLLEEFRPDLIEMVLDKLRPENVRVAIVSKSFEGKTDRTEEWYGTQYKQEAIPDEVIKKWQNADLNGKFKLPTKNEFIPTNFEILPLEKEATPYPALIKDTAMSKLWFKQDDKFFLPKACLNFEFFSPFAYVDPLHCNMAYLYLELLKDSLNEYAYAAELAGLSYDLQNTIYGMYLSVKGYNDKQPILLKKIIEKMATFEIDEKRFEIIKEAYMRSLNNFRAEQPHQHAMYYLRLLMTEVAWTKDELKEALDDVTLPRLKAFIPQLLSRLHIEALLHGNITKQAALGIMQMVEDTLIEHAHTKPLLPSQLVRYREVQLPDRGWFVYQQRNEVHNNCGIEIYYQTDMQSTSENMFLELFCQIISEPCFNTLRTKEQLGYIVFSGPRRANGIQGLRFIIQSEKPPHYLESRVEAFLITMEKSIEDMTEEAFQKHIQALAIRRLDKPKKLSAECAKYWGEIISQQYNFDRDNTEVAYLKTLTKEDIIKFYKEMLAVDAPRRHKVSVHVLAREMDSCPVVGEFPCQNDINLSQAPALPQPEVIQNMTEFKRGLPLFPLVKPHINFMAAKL

HEK293 [2] = assay: membrane integrity loss in HEK cells – cell-based, fluorescence, cytotoxicity control for IDE activator project, dose response (AID 588440); type: functional; conditions: Homo sapiens;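 further: cytotoxicity by LDH release measuring loss of membrane integrity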
HEK293 [3] = assay: optical interference in Abeta FP readout, dose response, artefact control for IDE activator project, biochemical, fluorescence polarization (AID 588442); type: functional, cell-based; conditions: Homo sapiens
Insulin-degrading enzyme [4] = target: T1, Insulin-degrading enzyme; assay: cellular IDE activation of Abeta substrate cleavage – fluorescence polarization, HEK cells, dose response (AID 588439); type: functional, cell-based
Estrogen receptor beta = Estrogen receptor beta (Homo sapiens, UniProt Q92731);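 further: recombinant ER-beta bound to coactivator SRC1 peptide in presence of estradiol agonist; inhibitors block coactivator peptide binding and lower the FRET signal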
Chain of Estrogen receptor beta (Q92731 whole entry): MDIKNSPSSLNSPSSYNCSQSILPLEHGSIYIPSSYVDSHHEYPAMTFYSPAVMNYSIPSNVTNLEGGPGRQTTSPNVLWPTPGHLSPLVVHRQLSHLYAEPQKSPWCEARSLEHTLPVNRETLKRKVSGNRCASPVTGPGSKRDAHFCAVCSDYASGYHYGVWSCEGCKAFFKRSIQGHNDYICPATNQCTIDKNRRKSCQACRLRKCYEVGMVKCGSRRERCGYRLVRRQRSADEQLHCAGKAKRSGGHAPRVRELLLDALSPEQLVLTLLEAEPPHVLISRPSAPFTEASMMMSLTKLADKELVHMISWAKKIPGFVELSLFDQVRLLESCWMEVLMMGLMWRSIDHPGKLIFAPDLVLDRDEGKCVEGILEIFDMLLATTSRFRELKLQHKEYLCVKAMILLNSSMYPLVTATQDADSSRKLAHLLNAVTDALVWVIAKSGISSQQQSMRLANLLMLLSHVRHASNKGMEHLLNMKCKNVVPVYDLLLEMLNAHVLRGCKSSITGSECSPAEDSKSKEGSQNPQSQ

[5] = target: T2, Heat shock factor protein 1 (Mus musculus, UniProt P38532); assay: enhancement of HSF1-driven luciferase signal – cell-based, NIH3T3, luminescence, dose retest, confirmation (AID 435004); type: functional;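 further: stress induced by proteasome inhibitor MG132 added 30 min after compound; luciferase reporter driven by HSF1 response element in NIH3T3 cells; actives raise luminescence as potentiators of the MG132 stress response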
T2 sequence (P38532 whole entry): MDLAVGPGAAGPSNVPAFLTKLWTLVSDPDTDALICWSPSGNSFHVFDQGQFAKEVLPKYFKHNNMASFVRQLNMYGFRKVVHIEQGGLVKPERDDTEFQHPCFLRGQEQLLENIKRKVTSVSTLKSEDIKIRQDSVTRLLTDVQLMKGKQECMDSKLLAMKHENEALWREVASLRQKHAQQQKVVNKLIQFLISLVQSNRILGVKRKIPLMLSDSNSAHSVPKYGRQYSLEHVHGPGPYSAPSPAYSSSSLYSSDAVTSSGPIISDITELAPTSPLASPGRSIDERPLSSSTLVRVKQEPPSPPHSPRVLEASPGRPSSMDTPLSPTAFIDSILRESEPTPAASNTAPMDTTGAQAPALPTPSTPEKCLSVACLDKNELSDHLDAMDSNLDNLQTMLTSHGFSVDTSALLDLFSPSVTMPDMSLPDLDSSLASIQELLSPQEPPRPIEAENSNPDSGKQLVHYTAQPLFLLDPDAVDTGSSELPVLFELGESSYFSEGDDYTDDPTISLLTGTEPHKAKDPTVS

[6] = target: T3, Hepatocyte nuclear factor 4-alpha (Homo sapiens, UniProt P41235); type: functional, cell-based;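 further: biochemical luminescence-based dose-response counterscreen measuring inhibition of HNF4 dimerization, run alongside a screen for blockers of ABHD5–perilipin-5 interaction; split luciferase complementation of HNF4 fusion proteins in cell lysate measuring dimerization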
T3 sequence (P41235 whole entry): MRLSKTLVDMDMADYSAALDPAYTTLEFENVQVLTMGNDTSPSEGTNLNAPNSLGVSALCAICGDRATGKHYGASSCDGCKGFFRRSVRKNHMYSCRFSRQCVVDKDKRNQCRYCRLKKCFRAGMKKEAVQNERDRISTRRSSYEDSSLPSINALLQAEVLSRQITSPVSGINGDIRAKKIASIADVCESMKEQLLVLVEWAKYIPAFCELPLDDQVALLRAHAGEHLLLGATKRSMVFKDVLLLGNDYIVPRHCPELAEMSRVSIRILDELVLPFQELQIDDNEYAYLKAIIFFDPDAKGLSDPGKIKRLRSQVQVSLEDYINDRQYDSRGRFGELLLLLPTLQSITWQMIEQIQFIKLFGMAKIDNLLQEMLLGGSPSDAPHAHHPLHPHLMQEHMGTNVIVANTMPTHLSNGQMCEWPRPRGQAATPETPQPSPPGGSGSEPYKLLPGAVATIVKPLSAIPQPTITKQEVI

INS1 = assay: INS-1E survival protection against cytokine death – cell-based, luminescence, retest, dose response (AID 449756); type: functional; conditions: Rattus norvegicus;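 further: cell death triggered by IL-1 beta plus TNF-alpha plus IFN-gamma mixture; protective hits raise ATP signal compared with cytokine alone wells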
[7] = loss of viability in HepG2 cells – cell-based, CellTiter-Glo, cherry-picked, cytotoxicity control for Shn3 inhibitor project, dose response (AID 624134); type: functional
[8] = non-specific 3'UTR reporter inhibition in Clone20-Shn3RL – cell-based, Renilla luciferase, cherry-picked, counter-screen for Shn3 inhibitor project, dose response (AID 624133); type: functional
[9] = reduction of Shn3 3'UTR-driven luciferase in osteoblasts – cell-based, Clone20 osteoblasts, firefly luciferase, cherry-picked, dose response (AID 624132); type: functional;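 further: firefly luciferase luminescence from reporter carrying the Shn3 3'UTR in osteoblasts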
Melanocortin receptor 4 = Melanocortin receptor 4 (Homo sapiens, UniProt P32245); type: functional, cell-based;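 further: Cell-based assay with luminescence read-out, confirmatory dose-response testing for agonist activity of biased ligands at MC4R; human U2OS cells with tagged receptor and beta-arrestin; potency of agonists that increase receptor coupling to beta-arrestin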
Chain of Melanocortin receptor 4 (P32245 whole entry): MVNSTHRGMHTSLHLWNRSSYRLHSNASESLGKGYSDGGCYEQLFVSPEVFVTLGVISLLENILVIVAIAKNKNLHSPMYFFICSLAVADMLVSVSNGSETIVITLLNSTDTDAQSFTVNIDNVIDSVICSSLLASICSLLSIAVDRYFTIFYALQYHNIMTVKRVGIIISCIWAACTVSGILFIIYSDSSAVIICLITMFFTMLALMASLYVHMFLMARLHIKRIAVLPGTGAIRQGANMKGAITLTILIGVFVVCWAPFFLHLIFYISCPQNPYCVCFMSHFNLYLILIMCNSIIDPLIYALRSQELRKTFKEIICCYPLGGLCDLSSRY

[10] = P. falciparum Dd2 growth inhibitors, dose response, SYBR Green, cherry-picked samples (AID 1159567); type: functional, cell-based
[11] = toxicity to human hepatoma HepG2 cells – cell-based, cherry-picked samples, cytotoxicity control, dose response (AID 1159577); type: functional

Compound | EC50 (Insulin-degrading enzyme [1]) | IC50 (HEK293 [2]) | EC50 (HEK293 [3]) | EC50 (Insulin-degrading enzyme [4]) | also measured
COc1ccc(/C=C2\Oc3cc(OCC(=O)N4CCC(C(=O)O)CC4)ccc3C2=O)c(OC)c1OC | 33 µM (inactive) | > 89.2 µM (inactive) | 24 µM (inactive) | 22 µM (inactive) | 
COc1ccccc1NC(=O)NC(N)=O |  |  |  |  | IC50 (Estrogen receptor beta): > 50 µM (not active)
CC(=O)Oc1c(Cl)cc(N(C(C)=O)S(=O)(=O)c2ccccc2)c2ccccc12 |  |  |  |  | EC50 [5]: > 260 µM (inactive); IC50 [6]: 10.1 µM (inactive); AC50 (INS1): 4.34 µM (active)
O=C(NS(=O)(=O)Nc1ccccc1)C1=C(N2CCCC2)COC1=O | > 54.7 µM (inactive) | > 89.2 µM (inactive) | > 55.9 µM (inactive) | > 54.7 µM (inactive) | 
CC1CN(S(=O)(=O)c2ccc(C(=O)Nc3nncs3)cc2)CC(C)O1 (configuration not stated) | > 54.7 µM (inactive) | > 89.2 µM (inactive) | > 54.7 µM (inactive) | > 54.7 µM (inactive) | 
OC[C@@H]1CN(Cc2ccncc2)C[C@H](n2cnc3c(N4CCN(c5ccccc5)CC4)ncnc32)O1 |  |  |  |  | AC50 [7]: 3.81 µM (active); AC50 [8]: 5.72 µM (active); AC50 [9]: 2.38 µM (active)
CCOC(=O)C(/C=N/c1ccc2c(c1)nnn2-c1ccc(Cl)cc1)=C(\O)OCC |  |  |  |  | EC50 (Melanocortin receptor 4): > 89.2 µM (inactive)
Cc1cccc(-c2ccc([C@@H]3[C@H](CO)N4CCCCN(S(=O)(=O)c5cccc(C)c5)C[C@@H]34)cc2)c1 |  |  |  |  | AC50 [10]: 0.864 µM (active); AC50 [11]: 8.89 µM (active)

— ChEMBL document CHEMBL1201862, “PubChem BioAssay data set” (2004)
